Reference: patent US10925890B2, “Use of dextran sulfate” (TX MEDIC AB, priority 2014, dated 2021)

Tests used:
[1] = tested on: Critical Hind-Limb Ischemia Mouse Model; experiment: In vivo assessment of limb function, mouse hind-limb ischemia
Protocol: Semi-quantitative assessment of impaired use of the ischemic limb was performed once a week post-surgery using the following scale, see Table 7.
Limb function was graded as “Not applicable” in case of partial or full limb amputation. In such case blood flow measurements was not included in the statistical analysis.

tMCAO rat-stroke model [2] = experiment: Cerebral blood flow assessment (Flow-R Laser Doppler), tMCAO rat; type: in vivo; settings: day 29
Protocol: Transient middle cerebral artery occlusion was performed according to the method previously described in Stroke 29, 2162-2170 (1998). The right common carotid artery (CCA) was exposed through a midline neck incision and carefully dissected free from surrounding nerves and fascia—from its bifurcation to the base of the skull. The occipital artery branches of the external carotid artery (ECA) were then isolated, and these branches were dissected and coagulated. The ECA was dissected further distally and coagulated along with the terminal lingual and maxillary artery branches, which was then divided. The internal carotid artery (ICA) was isolated and carefully separated from the adjacent vagus nerve, and the pterygopalatine artery was ligated close to its origin with a 5-0 nylon suture (SMI, Belgium). Next a 4-0 silk suture was tied loosely around the mobilized ECA stump, and a 4 cm length of 4-0 monofilament nylon suture (the tip of the suture was blunted by using a flame, and the suture was coated with polylysine, prior to insertion) was inserted through the proximal ECA into the ICA and thence into the circle of Willis, effectively occluding the MCA. […]
Evaluation of the blood flow on the brain cortex and vessel constriction was carried out using Flow-R Laser Doppler system, in which intracranial blood flow and vessels diameter (constriction/dilatation) was monitored. […]

tMCAO rat-stroke model [3] = experiment: Brain immunostaining: capillaries density (SMA) and GFAP, tMCAO rat; type: in vivo
Text: On day 30 after MCAO, rats were anesthetized by ketamine/xylazine were transcardiacly perfused by buffered paraformaldehyde (PFA) 4%. The brains were collected fixed in 4% buffered PFA for immunostaining and histological evaluation.
Two sections of brain samples were taken from the same areas of six animals from groups 1M and 3M. Capillaries were counted under the microscope in a total of three random fields from each section. Density was expressed as the mean number of capillaries per field of view.

[4] = day 7 (before treatment), group 2M, 10 mg/kg 3 times/week
[5] = day 7 (before treatment), group 3M, 30 mg/kg 3 times/week
[6] = day 7 (before treatment), group 4M, 30 mg/kg 1 time/week
[7] = day 35, group 2M, 10 mg/kg s.c. 3 times/week
[8] = day 35, group 3M, 30 mg/kg s.c. 3 times/week
[9] = day 35, group 4M, 30 mg/kg s.c. 1 time/week

## Dextran sulfate
[1]; 10 or 30 mg/kg, 1x/w or 3x/w from day 8, from day 21 and onward, two-way ANOVA
  Limb function score (0-3, 3 worst): significant improvement
[1]; [4]
  Incidence of mice with limb function score 0: 0.0%
  Incidence of mice with limb function score 1: 0.0%
  Incidence of mice with limb function score 2: 21.4%
  Incidence of mice with limb function score 3: 79.6%
[1]; [5]
  Incidence of mice with limb function score 0: 0.0%
  Incidence of mice with limb function score 1: 0.0%
  Incidence of mice with limb function score 2: 21.4%
  Incidence of mice with limb function score 3: 79.6%
[1]; [6]
  Incidence of mice with limb function score 0: 0.0%
  Incidence of mice with limb function score 1: 0.0%
  Incidence of mice with limb function score 2: 7.1%
  Incidence of mice with limb function score 3: 92.9%
[1]; [7]
  Incidence of mice with limb function score 0: 50.0%
  Incidence of mice with limb function score 1: 42.9%
  Incidence of mice with limb function score 2: 7.1%
  Incidence of mice with limb function score 3: 0.0%
[1]; [8]
  Incidence of mice with limb function score 0: 72.4%
  Incidence of mice with limb function score 1: 21.5%
  Incidence of mice with limb function score 2: 7.1%
  Incidence of mice with limb function score 3: 0.0%
[1]; [9]
  Incidence of mice with limb function score 0: 69.2%
  Incidence of mice with limb function score 1: 30.8%
  Incidence of mice with limb function score 2: 0.0%
  Incidence of mice with limb function score 3: 0.0%
tMCAO rat-stroke model [2]
  Vessels diameter ratio versus control: increased
tMCAO rat-stroke model [2]; groups 2M and 3M, damaged hemisphere
  Cerebral blood perfusion rate versus control vehicle-treated group: Statistically significant improvement
tMCAO rat-stroke model [3]; 15 mg/kg daily vs vehicle control
  Number of SMA capillaries with diameter less than 30 μm: Improvement
tMCAO rat-stroke model [3]; 15 mg/kg daily, 30 days after stroke
  Number of capillaries compared to vehicle treated control: increased the number of capillaries
tMCAO rat-stroke model [3]; GFAP area, day 30
  Inflammatory response compared to vehicle treated control: reduced inflammatory response
